Laboratory results from US20260297542A1, “HERBICIDE RESISTANT PLANTS” (SYNGENTA CROP PROTECTION AG, priority 2023, published 2026).
Positions count from the first letter of the chain named.

What was measured:
Assay in all cases: E. coli hemG growth inhibition by herbicide, AtPPO1 variant
Format in all cases: cell-based
Details in all cases: read-out: percentage growth inhibition
AtPPO1 F207Y = target: T1, AtPPO1 F207Y (Arabidopsis thaliana, UniProt P55826, F207Y)
T1 construct: expressed in transfected cells; host or cells: E. coli BL21(DE3) hemG (hemG replaced by CmR), pET24a plasmid
T1 sequence (P55826 35-537 F207Y): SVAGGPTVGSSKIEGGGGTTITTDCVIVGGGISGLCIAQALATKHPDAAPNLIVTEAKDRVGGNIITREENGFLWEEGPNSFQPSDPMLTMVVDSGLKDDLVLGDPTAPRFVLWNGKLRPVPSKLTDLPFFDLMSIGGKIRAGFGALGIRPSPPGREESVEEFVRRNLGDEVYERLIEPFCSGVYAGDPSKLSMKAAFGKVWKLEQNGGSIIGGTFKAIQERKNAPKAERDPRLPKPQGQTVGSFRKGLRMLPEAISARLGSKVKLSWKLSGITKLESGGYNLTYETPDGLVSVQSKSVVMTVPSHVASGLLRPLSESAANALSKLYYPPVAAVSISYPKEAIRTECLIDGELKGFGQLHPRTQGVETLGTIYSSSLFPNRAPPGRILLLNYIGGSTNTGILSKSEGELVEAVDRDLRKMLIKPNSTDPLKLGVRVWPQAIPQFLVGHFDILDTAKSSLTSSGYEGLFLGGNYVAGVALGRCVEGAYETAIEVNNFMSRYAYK
Outline: (§1)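 AtPPO1 variants from a site-saturation library, codon-optimised and T7-driven in pET24a, were expressed in E. coli BL21(DE3) lacking hemG (hemG replaced by CmR). Growth in Terrific broth with 0.1 mM IPTG plus 6.25 ppm herbicide 0 or E, 0.78 ppm herbicide B, or DMSO was read as OD600 after 24 h at 37° C; inhibition was calculated against the DMSO culture.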

AtPPO1 P418M = target: T2, AtPPO1 P418M (Arabidopsis thaliana, UniProt P55826, P418M)
T2 construct: expressed in transfected cells; host or cells: E. coli BL21(DE3) hemG (pET24a, T7 promoter)
T2 sequence (P55826 35-537 P418M): T1 sequence (P55826 35-537 F207Y) with Y173F, P384M
Outline: as §1

AtPPO1 V127L = target: T3, AtPPO1 V127L (Arabidopsis thaliana, UniProt P55826, V127L)
T3 construct: expressed in transfected cells; host or cells: E. coli BL21(DE3) hemG (hemG replaced by CmR), pET24a plasmid
T3 sequence (P55826 35-537 V127L): T1 sequence (P55826 35-537 F207Y) with V93L, Y173F
Outline: as §1

AtPPO1 Y426T = target: T4, AtPPO1 Y426T (Arabidopsis thaliana, UniProt P55826, Y426T)
T4 construct: expressed in transfected cells; host or cells: E. coli BL21(DE3) hemG (pET24a, T7 promoter)
T4 sequence (P55826 35-537 Y426T): T1 sequence (P55826 35-537 F207Y) with Y173F, Y392T
Outline: as §1

SMILES	inhibition at 0.78 ppm (AtPPO1 F207Y) [%]	inhibition at 0.78 ppm (AtPPO1 P418M) [%]	inhibition at 0.78 ppm (AtPPO1 V127L) [%]	inhibition at 0.78 ppm (AtPPO1 Y426T) [%]	inhibition at 6.25 ppm (AtPPO1 F207Y) [%]	inhibition at 6.25 ppm (AtPPO1 P418M) [%]	inhibition at 6.25 ppm (AtPPO1 V127L) [%]	inhibition at 6.25 ppm (AtPPO1 Y426T) [%]
C#CCN1C(=O)C(F)(F)Oc2cc(F)c(-n3c(=O)n(C)c(=S)n(C)c3=O)cc21 [Herbicide B, trifludimoxazin]	29	12	31	8	–	–	–	–
CCOC(=O)[C@]1(C)CC(c2cc(-n3c(=O)n(C)c(=S)n(C)c3=O)c(F)cc2Cl)=NO1 [Herbicide D, ethyl (5S)-3-[2-chloro-5-(3,5-dimethyl-2,6-dioxo-4-thioxo-1,3,5-triazinan-1-yl)-4-fluoro-phenyl]-5-methyl-4H-isoxazole-5-carboxylate]	–	–	–	–	19	25	29	12
CC(C)N(C)S(=O)(=O)NC(=O)c1cc(-n2c(=O)cc(C(F)(F)F)n(C)c2=O)c(F)cc1Cl [Herbicide E, saflufenacil]	–	–	–	–	66	64	65	11
